Measurements taken from patent US6235891A, “Glucocorticoid receptor agonist and decreased PP5” (South Alabama Medical Science Foundation, priority 1999, dated 2001).

System: serum/glucocorticoid inducible protein kinase (sgk) mRNA
Assay: Northern analysis of sgk mRNA
Assay type: cell-based, human
Settings: 24 hours
Protocol: The cells were harvested, and total RNA was extracted with TRIzol® Reagent according to the methods of the manufacturer. Total RNA (20 μg) was fractionated on 1% agarose gels containing formaldehyde and transferred to DURLON-UV nylon membranes (Stratagene). Following UV cross-linking, the filters were hybridized with a [α^32 P]probe for human PP5. The human PP5 cDNA probe was generated from the full length coding region of PP5 and [α^32 P]-dATP was labeled with DECAprime® DNA Labeling Kit according to the manufacturer's protocol. […] Quantification of hybridization signals was achieved by analysis of the scanned autoradiograms using the NIH Image program (ImagePC).
The antiproliferative effect of dexamethasone correlates with the presence of wild type p53 and the expression of p21^Waf1/Cip1 mRNA. Referring to FIGS. 1A-1C, the effect of dexamethasone on cell proliferation in p53-defective T-24 human bladder carcinoma, p53-null TR9 human fibroblasts (Webster et al. 1993; Maiyar et al. 1996), and p53 wild-type A549 human lung carcinoma cells was determined by treating cells in log-phase growth with a single dose of 100 nM dexamethasone and counting the number of cells in treated (.cndot.) and untreated (.box-solid.) cultures for six consecutive days following treatment. […] After 24 hours total mRNA was prepared and analyzed for p21 and sgk mRNA levels by Northern analysis. […]

Compound: C[C@@H]1C[C@H]2[C@@H]3CCC4=CC(=O)C=C[C@]4(C)[C@@]3(F)[C@@H](O)C[C@]2(C)[C@@]1(O)C(=O)CO [dexamethasone, reference compound]
- Expression of sgk (A549 cells, dexamethasone 0-100 nM): dose-dependent increase
- Expression of sgk (all three cell lines (A549, T-24, TR9), 100 nM): induced the expression
